According to patent US20140200241A1, “PRODRUGS FOR TREATING MICROBIAL INFECTIONS” (Northeastern University, priority 2011, published 2014):
In brackets after ≈: the same amount, converted by molar mass. Like-named read-outs stand apart in the source and are kept apart here.

Legend:
IMR90 [1] = details: human
Bacillus anthracis [2] = details: human fibroblast IC50 vs MIC, B. anthracis
Pseudomonas aeruginosa [3] = details: human
Fadu [4] = details: human
Escherichia coli [5] = assay: microbe, parasite or virus in culture
Bacillus anthracis [6] = assay: microbe, parasite or virus in culture
Enterococcus faecalis [7] = assay: microbe, parasite or virus in culture
in vitro = details: human
Yersinia pestis [8] = assay: microbe, parasite or virus in culture; details: for MIC: Y. pestis (FL2, PD30: KIM)
IMR90 [9] = assay: cells; details: Homo sapiens, IMR-90
Acinetobacter baumannii [10] = assay: microbe, parasite or virus in culture
Escherichia coli [11] = details: human
HepG2 [12] = details: human
HepG2 [13] = assay: cells; details: Homo sapiens
Staphylococcus aureus [14] = assay: microbe, parasite or virus in culture; details: for MIC: S. aureus
Pseudomonas aeruginosa [15] = assay: microbe, parasite or virus in culture
Fadu [16] = assay: cells; details: Homo sapiens
Yersinia pestis [17] = details: human fibroblast IC50 vs MIC, Y. pestis
Francisella tularensis [18] = assay: microbe, parasite or virus in culture; details: for MIC: F. tularensis SchuS4
Acinetobacter baumannii [19] = details: human
Francisella tularensis [20] = details: human fibroblast IC50 vs MIC, F. tularensis
[21] = tested on: E. coli long-chromosomal-deletion mutants; details: 50 μg/ml of prodrug
S. aureus = S. aureus mouse infection model; cited from earlier work
E. coli ΔnfnB = assay: microbe, parasite or virus in culture; details: Escherichia coli
Caco-2 [22] = assay: cells; details: Homo sapiens
Caco-2 [23] = details: human
Staphylococcus aureus [24] = details: for TI: human
E. coli ΔnfsA/ΔnfnB [25] = details: double mutant lacking both major nitroreductases vs wild type
Enterococcus faecalis [26] = details: human
Salmonella typhimurium = assay: MIC against Salmonella typhimurium; format: cell-based; details: Salmonella enterica
E. coli ΔnfsA/ΔnfnB [27] = assay: microbe, parasite or virus in culture; details: Escherichia coli
E. coli ΔnfsA = assay: microbe, parasite or virus in culture; details: Escherichia coli
MRSA = MRSA infection in C. elegans; format: in vivo
E. coli ΔargC = assay: microbe, parasite or virus in culture; details: Escherichia coli
E. coli ΔybgJ = assay: microbe, parasite or virus in culture; details: Escherichia coli

Row | SMILES | TI (IMR90 [1]) | TI (Bacillus anthracis [2]) | TI (Pseudomonas aeruginosa [3]) | TI (Fadu [4]) | MIC (Escherichia coli [5]; read-out: MIC Against E. coli) | MBC (Bacillus anthracis [6]) | MIC (Bacillus anthracis [6]) | MIC (Enterococcus faecalis [7]) | IC50 (in vitro) | MIC (Yersinia pestis [8]) | IC50 (IMR90 [9]) | MIC (Acinetobacter baumannii [10]) | TI (Escherichia coli [11]) | TI (HepG2 [12]) | IC50 (HepG2 [13]) | MIC (Staphylococcus aureus [14]) | MIC (Pseudomonas aeruginosa [15]) | IC50 (Fadu [16]) | TI (Yersinia pestis [17]) | TI (Acinetobacter baumannii [19]) | also measured
1 | Oc1c(Br)cc(Br)c2cccnc12 [FL2] | 67 | 67 | >2 | 21 | 1.5 µg/mL (≈ 4.95 µM) | > 50 µg/mL | 1.5 µg/mL (≈ 4.95 µM) | 3.25 µg/mL (≈ 10.7 µM) | 100 µg/mL (≈ 330 µM) | 1.5 µg/mL (≈ 4.95 µM) | 100 µg/mL (≈ 330 µM) | 6.25 µg/mL (≈ 20.6 µM) | 67 | 42 | 62.5 µg/mL (≈ 206 µM) | ≤ 1.5 µg/mL | > 50 µg/mL | 31.2 µg/mL (≈ 103 µM) | 67 | 16 | MBC (Escherichia coli [5]): 3 µg/mL (≈ 9.9 µM); MBC (Yersinia pestis [8]): 12.5 to 25 µg/mL (≈ 41.3 to 82.5 µM); MBC (Francisella tularensis [18]): 1.5 to 3.12 µg/mL (≈ 4.95 to 10.3 µM); MIC (Francisella tularensis [18]): 0.097 µg/mL (≈ 0.32 µM); TI (Francisella tularensis [20]): 1,031; Resistance (growth in presence of prodrug) [21]: observed in a large number of deletions
2 | COc1ccccc1NC(=O)Nc1ccc2ccccc2c1 [INF271] |  |  |  |  |  |  |  |  |  |  |  |  |  |  |  |  |  |  |  |  | efficacy (S. aureus): shows efficacy in a S. aureus mouse infection model
3 | O=[N+]([O-])c1ccc(/C=[N+](\[O-])CCO)o1 [FL1] | 320 |  | 10 | 80 | 0.78 µg/mL (≈ 3.9 µM) | 0.78 µg/mL (≈ 3.9 µM) | 0.35 µg/mL (≈ 1.75 µM) | 3.12 µg/mL (≈ 15.6 µM) | 250 µg/mL (≈ 1250 µM) | ≤ 0.78 µg/mL | 250 µg/mL (≈ 1250 µM) | 12.5 µg/mL (≈ 62.5 µM) | 320 | 40 | 31.2 µg/mL (≈ 156 µM) | 1.56 µg/mL (≈ 7.79 µM) | 25 µg/mL (≈ 125 µM) | 62.5 µg/mL (≈ 312 µM) | ≧320 | 20 | Hemolytic activity (Sheep's red blood cells): no hemolytic activity; MIC (E. coli ΔnfnB): 0.16 µg/mL (≈ 0.799 µM); IC50 (Caco-2 [22]): 200 µg/mL (≈ 999 µM); TI (Caco-2 [23]): 256; MBC (Escherichia coli [5]): 0.78 µg/mL (≈ 3.9 µM); MIC (Escherichia coli [5]): 0.78 µg/mL (≈ 3.9 µM); TI (Staphylococcus aureus [24]): 160; decrease of activity (E. coli ΔnfsA/ΔnfnB [25]): 16 fold; TI (Enterococcus faecalis [26]): 80; MIC (Salmonella typhimurium): 5 µg/mL (≈ 25 µM); MIC (E. coli ΔnfsA/ΔnfnB [27]): 12.5 µg/mL (≈ 62.5 µM); MBC (Staphylococcus aureus [14]): 3.25 µg/mL (≈ 16.2 µM); MIC (E. coli ΔnfsA): 2.5 µg/mL (≈ 12.5 µM); in vivo efficacy (MRSA): in vivo efficacy against a MRSA infection in C. elegans
4 | O=C(/C=C(\O)C(F)(F)F)c1ccc(Cl)cc1 [PD30] | 40 | 320 | >2 | 10 | 6.25 µg/mL (≈ 24.9 µM) | > 50 µg/mL | 0.78 µg/mL (≈ 3.11 µM) | 6.25 µg/mL (≈ 24.9 µM) | 250 µg/mL (≈ 998 µM) | 0.78 µg/mL (≈ 3.11 µM) | 250 µg/mL (≈ 998 µM) | 12.5 µg/mL (≈ 49.9 µM) | 40 | 10 | 62.5 µg/mL (≈ 249 µM) | 3.12 µg/mL (≈ 12.5 µM) | > 50 µg/mL | 62.5 µg/mL (≈ 249 µM) | 320 | 20 | Hemolytic activity (Sheep's red blood cells): no hemolytic activity; IC50 (Caco-2 [22]): 200 µg/mL (≈ 798 µM); TI (Caco-2 [23]): 32; MIC (Staphylococcus aureus [24]; S. aureus): 3.12 µg/mL (≈ 12.4 µM); TI (Staphylococcus aureus [24]): 80; MIC (E. coli ΔargC): 50 µg/mL (≈ 200 µM); MIC (E. coli ΔybgJ): 100 µg/mL (≈ 399 µM); TI (Enterococcus faecalis [26]): 40; MBC (Yersinia pestis [8]): 3.12 to 6.25 µg/mL (≈ 12.4 to 24.9 µM); MBC (Francisella tularensis [18]): 0.78 to 1.5 µg/mL (≈ 3.11 to 5.99 µM); MIC (Francisella tularensis [18]): 0.195 µg/mL (≈ 0.778 µM); TI (Francisella tularensis [20]): 1,282
